Results taken from the NIST ThermoML archive (doi:10.1021/je1009619).

Test: xn = mol fraction of the nth substance listed
Settings: Liquid, Vibrating tube method

CC1=CC[C@H]2C[C@@H]1C2(C)C [(S)-2-pinene] + C=C(C)[C@H]1CC=C(C)CC1
mass density [kg/m3]
Settings | x2 = 0 | x2 = 0.0976 | x2 = 0.1991 | x2 = 0.2983 | x2 = 0.3955 | x2 = 0.5036 | x2 = 0.5967 | x2 = 0.7024 | x2 = 0.8084 | x2 = 0.906
283.15 K, 20000 kPa | 880 | 878.3 | 876.4 | 874.6 | 872.9 | 870.9 | 869.2 | 867.4 | 865.3 | 863.5
283.15 K, 25000 kPa | 883.2 | 881.4 | 879.3 | 877.6 | 875.8 | 873.8 | 872.1 | 870.3 | 868.3 | 866.6
283.15 K, 30000 kPa | 886.3 | 884.3 | 882.4 | 880.5 | 878.7 | 876.7 | 875.1 | 873.1 | 871.3 | 869.2
283.15 K, 35000 kPa | 889.4 | 887.5 | 885.4 | 883.4 | 881.7 | 879.7 | 878 | 876.1 | 873.9 | 871.9
283.15 K, 40000 kPa | 892.5 | 890.4 | 888.5 | 886.5 | 884.7 | 882.7 | 880.9 | 878.9 | 876.5 | 874.4
298.15 K, 20000 kPa | 868.8 | 866.9 | 865.4 | 863.5 | 861.7 | 860 | 858.4 | 856.9 | 855.1 | 853
298.15 K, 25000 kPa | 872.1 | 870.3 | 868.6 | 866.8 | 865 | 863.2 | 861.6 | 859.8 | 858 | 856.1
298.15 K, 30000 kPa | 875.3 | 873.5 | 871.7 | 869.8 | 868.1 | 866.3 | 864.7 | 862.8 | 861 | 859.1
298.15 K, 35000 kPa | 878.6 | 876.7 | 875 | 873.1 | 871.3 | 869.5 | 867.9 | 865.9 | 864.1 | 862.2
298.15 K, 40000 kPa | 881.9 | 880 | 878.1 | 876.3 | 874.5 | 872.6 | 871 | 869 | 867.1 | 865.2
313.15 K, 20000 kPa | 858 | 856.2 | 854.4 | 852.6 | 851 | 849.2 | 847.6 | 845.9 | 844.1 | 842.4
313.15 K, 25000 kPa | 861.3 | 859.5 | 857.7 | 855.9 | 854.3 | 852.5 | 851 | 849.2 | 847.4 | 845.7
313.15 K, 30000 kPa | 864.7 | 862.8 | 861.1 | 859.3 | 857.6 | 855.7 | 854.2 | 852.4 | 850.5 | 848.8
313.15 K, 35000 kPa | 867.9 | 866.2 | 864.5 | 862.6 | 860.9 | 858.9 | 857.4 | 855.6 | 853.8 | 852
313.15 K, 40000 kPa | 871.3 | 869.5 | 867.8 | 866 | 864.2 | 862.2 | 860.6 | 858.8 | 856.9 | 855.1
328.15 K, 20000 kPa | 846.7 | 845.1 | 843.4 | 841.8 | 840.2 | 838.4 | 837 | 835.3 | 833.5 | 832
328.15 K, 25000 kPa | 850.4 | 848.7 | 847 | 845.2 | 843.6 | 841.9 | 840.4 | 838.6 | 836.9 | 835.4
328.15 K, 30000 kPa | 854 | 852.3 | 850.6 | 848.8 | 847.2 | 845.4 | 843.9 | 842.1 | 840.4 | 838.7
328.15 K, 35000 kPa | 857.5 | 855.8 | 854 | 852.3 | 850.6 | 848.8 | 847.3 | 845.5 | 843.7 | 841.9
328.15 K, 40000 kPa | 861.1 | 859.4 | 857.5 | 855.8 | 854.1 | 852.1 | 850.6 | 848.8 | 847.1 | 845.3
343.15 K, 20000 kPa | 835.9 | 834.4 | 832.8 | 831.2 | 829.6 | 827.9 | 826.5 | 824.8 | 823.1 | 821.6
343.15 K, 25000 kPa | 839.7 | 838.1 | 836.5 | 834.9 | 833.4 | 831.7 | 830.2 | 828.4 | 826.8 | 825.2
343.15 K, 30000 kPa | 843.8 | 842.1 | 840.4 | 838.8 | 837.1 | 835.4 | 834 | 832.1 | 830.4 | 828.8
343.15 K, 35000 kPa | 847.7 | 846 | 844.2 | 842.5 | 840.9 | 839.1 | 837.6 | 835.9 | 834.1 | 832.2
343.15 K, 40000 kPa | 851.4 | 849.6 | 847.9 | 846.2 | 844.5 | 842.7 | 841.2 | 839.5 | 837.3 | 835.5
358.15 K, 20000 kPa | 825 | 823.5 | 822.1 | 820.7 | 819.3 | 817.9 | 816.5 | 815.1 | 813.3 | 811.5
358.15 K, 25000 kPa | 829.2 | 827.7 | 826 | 824.6 | 823.1 | 821.6 | 820.2 | 818.7 | 816.9 | 815.3
358.15 K, 30000 kPa | 833.3 | 831.6 | 830 | 828.4 | 826.9 | 825.3 | 823.9 | 822.2 | 820.6 | 818.7
358.15 K, 35000 kPa | 837.4 | 835.7 | 834 | 832.2 | 830.7 | 829 | 827.5 | 825.8 | 824 | 822.4
358.15 K, 40000 kPa | 841.5 | 839.7 | 838 | 836.2 | 834.6 | 832.8 | 831.2 | 829.4 | 827.6 | 825.9
